# According to PMC10087775, “ProX from marine Synechococcus spp. show a sole preference for glycine‐betaine with differential affinity between ecotypes” (Environmental Microbiology, 2022):
# Like-named read-outs stand apart in the source and are kept apart here.
# How the values were obtained:
# ChoX = molecular target: ChoX; parameters: method as in Oswald et al. ([2008]); settings: ref Oswald et al. ([2008]); read-out: Affinity (K D); cited from earlier work
# OpuAC = molecular target: OpuAC; parameters: method as in Wolters et al. ([2010]); settings: ref Wolters et al. ([2010]), read-out: Affinity (K D), cited from earlier work
# TmoX = molecular target: TmoX; parameters: method as in Li et al. ([2015]); settings: ref Li et al. ([2015]); read-out: Affinity (K D); cited from earlier work
# (UniProt A0A7G8ITR3) = assay: Modified DSF (isothermal analysis, FoldAffinity) binding affinity of MITS9220_ProX; parameters: species or system Synechococcus sp. MITS9220; settings: read-out: Affinity (K D)
# Description: (§1) The DSF assay was modified to elucidate binding kinetics, following a published protocol specifically outlining this application, and validated using SBPs (Bai et al., [2019]). Briefly, a range of protein concentrations were tested (2–20 μM) to determine the optimal signal‐to‐noise ratio while requiring a low protein concentration (5 μM). Protein solutions were prepared in Buffer A at a concentration of 10 μM, with a 50× concentration of SYPRO Orange dye. Working stocks of ligands were prepared independently (in Buffer A) at the following concentrations: 0.4, 0.8, 1.6, 3.2, 6.4, 12.8, 25, 50, 100, 200, 2000 μM. ProX protein and ligands (10 μl each) were both delivered in triplicate into a 96‐well plate (final volume 20 μl). Plates were centrifuged in a benchtop plate spinner (1 min) to ensure sample homogeneity before recording fluorescence data across the thermal ramp as previously described.
# (§2) Data were processed using two independent software packages: the provided Python package (Bai et al., [2019]) and the web‐based FoldAffinity tool (Niebling et al., [2021]) to ensure their consistency and determine affinity values. The final values reported were taken from FoldAffinity. Processed results were then plotted (GraphPad Prism) to generate publication‐quality figures of the processed data.
# (§3) Purified ProX samples were subjected to binding kinetics determination using a modified DSF approach (Bai et al., [2019]; Niebling et al., [2021]). This approach was selected due to aberrant noise in calorimetric and tryptophan quenching experiments, attributed to possible dimer‐monomer interconversion co‐occurring with ligand‐binding events. […] This is related to the proportion of folded versus unfolded protein at a single temperature (isothermal analysis) using a selected temperature value (T sel ) slightly above the T M previously determined. Using the FoldAffinity tool (Niebling et al., [2021]), non‐linear regression and curve fitting of the processed thermal melt curves allowed the determination of ligand dissociation constants (K D ) for each protein and ligand partner.
# WH8102_ProX [1] = molecular target: T1, WH8102_ProX (Parasynechococcus marenigrum, UniProt Q7U4Z5); assay: Modified DSF (isothermal analysis, FoldAffinity) binding affinity of WH8102_ProX; parameters: species or system Synechococcus sp. WH8102; settings: for Kd: read-out: Affinity (K D)
# Description: as §1, §2, §3
# ProX [2] = molecular target: ProX; parameters: method as in Schiefner, Holtmann, et al. ([2004]); settings: ref Schiefner, Holtmann, et al. ([2004]); read-out: Affinity (K D); cited from earlier work
# ProX [3] = molecular target: ProX; parameters: method as in Schiefner, Breed, et al. ([2004]); settings: ref Schiefner, Breed, et al. ([2004]); read-out: Affinity (K D); cited from earlier work
# MITS9220_ProX = assay: DSF thermal melt ligand screening of MITS9220_ProX; assay type: binding, Synechococcus sp. MITS9220; settings: ligand tested independently by DSF
# Description: (§4) Commercially available libraries of small molecules were tested as potential binding partners to ProX by recording differential scanning fluorimetry (DSF) responses over a thermal gradient (Neisen et al., [2007]). SYPRO Orange dye (Invitrogen) was used to monitor fold integrity in discrete protein mixtures by measuring fluorescence at 590 nm following excitation at 485 nm using a Stratagene MX3000P q‐PCR instrument. Compounds tested in 96‐well blocks incorporated common protein stabilizing ligands (HR2‐096 Silver Bullets, Hampton Research) and single‐molecule osmolyte sources (MicroPlate PM9, Biolog Inc). The concentration of these compounds following reaction set‐up was ~4 μM, and, therefore below the concentration required to effect complete saturation of the binding pocket. Each condition was tested in triplicate, with each plate containing a control well with no additive.
# (§5) Thermal melt curves were analysed using the analysis template provided (Neisen et al., [2007]) and fitting of Boltzmann distribution (GraphPad Prism) for the determination of mid‐point thermal melt temperatures (Bai et al., [2019]). The only condition (Silver Bullets well #D8) leading to a significant increase (>3°C) in melting temperature was deconvoluted to identify the single component leading to such a change and repeated in triplicate.
# WH8102_ProX [4] = molecular target: T1, WH8102_ProX; assay: DSF thermal melt ligand screening of WH8102_ProX; assay type: binding, Synechococcus sp. WH8102; settings: ligand tested independently by DSF
# Description: as §4, §5
# [5] = 0.50 M NaCl (Buffer A), Tsel 62°C
# (UniProt A0A7G8ITR3), sequence (A0A7G8ITR3 40-334 limits assumed): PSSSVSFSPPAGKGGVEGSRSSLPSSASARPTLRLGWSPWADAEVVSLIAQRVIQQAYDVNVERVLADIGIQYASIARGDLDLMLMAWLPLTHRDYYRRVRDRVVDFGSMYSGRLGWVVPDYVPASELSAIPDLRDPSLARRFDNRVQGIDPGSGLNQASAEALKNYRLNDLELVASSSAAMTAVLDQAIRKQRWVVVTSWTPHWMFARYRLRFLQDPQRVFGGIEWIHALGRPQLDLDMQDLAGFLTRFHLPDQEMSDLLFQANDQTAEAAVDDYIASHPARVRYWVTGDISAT
# T1 sequence (Q7U4Z5 entry or part of it): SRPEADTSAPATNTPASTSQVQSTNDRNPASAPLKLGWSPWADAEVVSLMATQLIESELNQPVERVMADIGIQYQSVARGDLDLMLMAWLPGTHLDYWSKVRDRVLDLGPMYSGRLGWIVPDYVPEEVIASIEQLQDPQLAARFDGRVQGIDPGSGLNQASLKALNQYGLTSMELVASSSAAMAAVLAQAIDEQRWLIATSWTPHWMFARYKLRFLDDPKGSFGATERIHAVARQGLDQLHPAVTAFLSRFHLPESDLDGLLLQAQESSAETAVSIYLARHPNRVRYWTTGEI
structure (smiles),measurement,setting,value
CC(=O)OCC[N+](C)(C)C [Acetylcholine],Kd,ChoX,145 µM
C[N+](C)(C)CC(O)CC(=O)[O-] (stereo not shown) [Carnitine],Kd,OpuAC; dash with footnote b,> 10000 µM
C[N+](C)(C)CCO [Choline],Kd,ChoX,2.7 µM
same,Kd,TmoX,3.8 µM
O=C(O)[C@@H]1CCCN1 [Proline],Kd,OpuAC; dash with footnote b,> 10000 µM
C[N+](C)(C)[O-] [Trimethylamine oxide],Kd,TmoX,1.6 µM
C[N+](C)(C)CC(=O)[O-] [glycine betaine],Kd,(UniProt A0A7G8ITR3); 0.25 M NaCl,1.1 µM
same,Kd,(UniProt A0A7G8ITR3); [5],1.2 µM
same,Kd,(UniProt A0A7G8ITR3); 1.5 M NaCl,0.52 µM
same,Kd,WH8102_ProX [1]; 0.25 M NaCl,13 ± 0.5 µM
same,Kd,WH8102_ProX [1]; 0.50 M NaCl (Buffer A),12 µM
same,Kd,WH8102_ProX [1]; 1.5 M NaCl,13 ± 0.7 µM
same,Kd,ProX [2],0.06 µM
same,Kd,ProX [3],1 µM
C[N+]1(C)CCC[C@H]1C(=O)[O-] [proline betaine],TM shift,MITS9220_ProX,approximately 4 °C
same,TM shift,WH8102_ProX [4],< 2 °C
same,Kd,(UniProt A0A7G8ITR3); [5],> 1000 µM
same,Kd,WH8102_ProX [1]; 0.50 M NaCl (Buffer A),250 ± 80 µM
same,shifts in observed melting temperatures upon incremental addition of ligand,"WH8102_ProX [1]; modified DSF, Figure S3",negligible shifts
same,Kd,ProX [2],0.05 µM
same,Kd,ProX [3],5 µM
same,Kd,OpuAC,41 µM
